Assay results taken from patent US9078868B2, “Therapeutic agent for accelerating recovery of animal under medical treatment” (UNIVERSITY OF MIYAZAKI, priority 2010, dated 2015).
No end group written: not given here. *: point of attachment. Octanoyl = CCCCCCCC(=O)*

Assays:
[1] = tested on: hospitalized animals (canines and felines) after surgery; experiment: Example 1: single dose of ghrelin in hospitalized animals after surgery, parameters before vs after administration; type: in vivo; details: for Body temperature: animals improved/animals evaluated / Biochemical tests: animals improved/animals evaluated / Body temperature: response rate / Activity (vigor): animals improved/animals evaluated / Hematology tests: animals improved/animals evaluated: single dose
Protocol: In these Examples, a canine-derived ghrelin (a peptide compound in which a side chain hydroxyl group of the serine residue at the 3rd position from the amino terminus is acylated with an n-octanoyl group in SEQ ID NO: 1) was used as ghrelin. The canine-derived ghrelin was chemically synthesized and then lyophilized, and a canine-derived ghrelin for administration containing 0.1, 0.3, 0.5, or 1 mg per vial of a canine-derived ghrelin was prepared.
To administer ghrelin to animals, the canine-derived ghrelin was dissolved to a concentration of 1 mg/2 mL in physiological saline and intravenously, subcutaneously, or intramuscularly injected after the dose was adjusted depending on the body weight.
Animals hospitalized in veterinary hospitals, particularly canines and felines, were used for treatment. These animals may or may not have undergone a surgery for treatment. The surgeries performed on the animals were pyometra surgery, surgical removal of a reproductive organ, surgical removal of mammary gland tumor, ovary cyst surgery, liver cell tumor surgery, disc hernia surgery, diaphragmatic hernia surgery, fracture surgery, gastrointestinal tract surgery, and urethroplasty.
Physical conditions in animals with various pathological conditions were examined by measuring parameters including activity (vigor), blood cell test values, biochemical test values, urinalysis, electrolyte tests, body weight, body temperature, the degree of anger or anxiety, respiratory rate, and the like to evaluate the effect of improving physical conditions in the animals. The effect was evaluated by comparing various evaluation parameters before and after administration.
The evaluation parameters used were activity (vigor), body temperature, hematology parameters (blood cell test values), serum biochemistry parameters (biochemical test values), the degree of anger or anxiety, and respiratory rate. […] The degree of anger or anxiety of an animal observed visually by an observer were also evaluated using the following criteria: 1. calm and accustomed to a health care professional, 2. able to be touched by but unaccustomed to a health care professional and restless, 3. wandering around or hiding in the kennel with anxiety, 4. able to be barely touched, and 5. too violent to be touched by a health care professional and tends to bite.
13.2 to 80 μg/kg of a canine-derived ghrelin (chemically synthesized) was administered by an intravenous injection, a subcutaneous injection, or an intramuscular injection (solution for an injection: physiological saline or the like) to 32 animals (canines and felines) after surgery which were hospitalized in veterinary hospitals. The 32 cases of the animals were as follows.
Pyometra surgery and surgical removal of reproductive organ, 18 animals; mammary gland tumor surgery, three animals (including one animal also having pyometra); disc hernia surgery, two animals; surgery for a fracture or a traffic accident injury, three animals; urethroplasty, three animals; gastrointestinal tract surgery, two animals; and pneumothorax surgery, one animal.
Improvement of physical conditions of these animals was evaluated in terms of activity (vigor), body temperature, hematology parameters (blood cell test values), and serum biochemistry parameters (biochemical test values).

[2] = tested on: animals with poor physical conditions, surgery or no surgery; experiment: Example 3-2: improvement after ghrelin in animals which had or had not undergone a surgery; type: in vivo, canines and felines; details: dash = no significant difference
Protocol: A canine-derived ghrelin was repeatedly administered intravenously or subcutaneously to each of the animals with poor physical conditions. The dose of intravenous administration was approximately 5 μg/kg or 10 μg/kg, and the dose of subcutaneous administration was approximately 100 μg/kg. The mean number of doses in repeated administration was approximately four times, and the maximum number of doses was 11 times. The administration period was one to six days.
Evaluation parameters evaluated before and after administration of ghrelin were appetite, quantity of meal, biochemical test values (GOT, GPT, BUN, CRE, CPK, CRP), blood cell test values (white blood cell [WBC], platelet [PLT]), body temperature, activity (vigor), skin, coat, wellness, the degree of anger or anxiety, respiratory rate, and others. These parameters were analyzed together with the results of the animals receiving a single dose (Examples 1 and 2). The analysis results were compiled by disease, such as renal dysfunction, tumor, fracture, and accident (see Table 3-1). Statistical analysis of values before and after administration was performed using a paired t-test.
Ghrelin was administered to animals with poor physical conditions after surgery for the treatment of various pathological conditions, and various parameters indicating physical conditions before and after administration of ghrelin were analyzed. The surgery included urethroplasty, surgery for a fracture, luxation, disc hernia, or diaphragmatic hernia, surgical removal of a tumor, and surgical removal of a reproductive organ due to pyometra.
Meanwhile, ghrelin was administered to animals with poor physical conditions due to various pathological conditions which had not undergone a surgery, and various parameters indicating physical conditions before and after administration of ghrelin were analyzed. The pathological conditions included filariasis, mite infestation, babesiosis, hemobartonellosis, bite, and dermatitis.

[3] = gastrointestinal tract surgery, 2 animals
[4] = pyometra surgery and surgical removal of reproductive organ, 18 animals
[5] = surgical removal of mammary gland tumor, 3 animals
[6] = total, 32 animals after surgery

GSS (n-octanoyl) FLSPEHQKLQQRKESKKPPAKLQPR (GSS(Octanoyl)FLSPEHQKLQQRKESKKPPAKLQPR; listed as Canis familiaris) [ghrelin, chemically synthesized, lyophilized]
Body temperature: animals improved/animals evaluated ([1]; disc hernia surgery, 2 animals): 1/1
Serum creatinine (Cre) value after administration ([1]; example, animal after surgery, before administration 6.0 mg/dL): 1.1 mg/dL
Blood urea nitrogen (BUN) value after administration ([1]; example, animal after surgery, before administration 44.2 mg/dL): 29.3 mg/dL
Total cholesterol (T-CHO) value after administration ([1]; example, animal after surgery, before administration 405 mg/dL): 260 mg/dL
Glutamic pyruvic transaminase (GPT) value after administration ([1]; example, animal after surgery, before administration 180 IU/L): 85 IU/L
Alkaline phosphatase (ALP) value after administration ([1]; example, animal after surgery, before administration 345 IU/L): 286 IU/L
Creatinine phosphokinase (CPK) value after administration ([1]; example, animal after surgery, before administration 1429 IU/L): 955 IU/L
C-reactive protein (CRP) value after administration ([1]; example, animal after surgery, before administration upper limit of measurement): 7.3 mg/dL
White blood cell count after administration ([1]; example, animal after surgery, high count decreased, before administration 44.1×10^3/μL): 17700 µL⁻¹
Platelet count after administration ([1]; example, animal after surgery, low count increased, before administration 13.9×10^4/μL): 585000 µL⁻¹
Red blood cell count after administration ([1]; example, animal after surgery, low count increased, before administration 214×10^4/μL): 3.04e+06 µL⁻¹
Hemoglobin level after administration ([1]; example, animal after surgery, low level increased): 7.7 g/dL
Biochemical tests: animals improved/animals evaluated [1, 3]: 1/1
Body temperature: animals improved/animals evaluated [1, 3]: 1/1
Body temperature: animals improved/animals evaluated ([1]; pneumothorax surgery, 1 animal): 0/1
Body temperature: response rate ([1]; pneumothorax surgery, 1 animal): (0%)
Activity (vigor): animals improved/animals evaluated [1, 4]: 6/7
Biochemical tests: animals improved/animals evaluated [1, 4]: 3/3
Body temperature: animals improved/animals evaluated [1, 4]: 3/4
Hematology tests: animals improved/animals evaluated [1, 4]: 3/4
Activity (vigor): animals improved/animals evaluated ([1]; surgery for fracture or traffic accident injury, 3 animals): 3/3
Activity (vigor): animals improved/animals evaluated [1, 5]: 2/2
Biochemical tests: animals improved/animals evaluated [1, 5]: 1/1
Body temperature: animals improved/animals evaluated [1, 5]: 1/1
Hematology tests: animals improved/animals evaluated [1, 5]: 1/1
Activity (vigor): animals improved/animals evaluated [1, 6]: 11/12
Biochemical tests: animals improved/animals evaluated [1, 6]: 5/6
Body temperature: animals improved/animals evaluated [1, 6]: 5/8
Hematology tests: animals improved/animals evaluated [1, 6]: 4/6
Activity (vigor): animals improved/animals evaluated ([1]; urethroplasty, 3 animals): 1/1
Biochemical tests: animals improved/animals evaluated ([1]; urethroplasty, 3 animals): 1/2
Body temperature: animals improved/animals evaluated ([1]; urethroplasty, 3 animals): 0/1
Body temperature: response rate ([1]; urethroplasty, 3 animals): (0%)
Hematology tests: animals improved/animals evaluated ([1]; urethroplasty, 3 animals): 1/2
BUN: significance (p) of improvement after vs before administration ([2]; no surgery, 24 animals): p < 0.05
GPT: significance (p) of improvement after vs before administration ([2]; no surgery, 24 animals): p < 0.05
Vigor: significance (p) of improvement after vs before administration ([2]; no surgery, 24 animals): p < 0.01
WBC: significance (p) of improvement after vs before administration ([2]; no surgery, 24 animals): p < 0.05
BUN: significance (p) of improvement after vs before administration ([2]; surgery, 70 animals): p < 0.05
Body temperature: significance (p) of improvement after vs before administration ([2]; surgery, 70 animals): p < 0.01
CRE: significance (p) of improvement after vs before administration ([2]; surgery, 70 animals): p < 0.05
Degree of anger: significance (p) of improvement after vs before administration ([2]; surgery, 70 animals): p < 0.01
GOT: significance (p) of improvement after vs before administration ([2]; surgery, 70 animals): p < 0.01
GPT: significance (p) of improvement after vs before administration ([2]; surgery, 70 animals): p < 0.01
PLT: significance (p) of improvement after vs before administration ([2]; surgery, 70 animals): p < 0.05
Respiratory rate: significance (p) of improvement after vs before administration ([2]; surgery, 70 animals): p < 0.05
Vigor: significance (p) of improvement after vs before administration ([2]; surgery, 70 animals): p < 0.01
